Test results published in patent publication US20020156032A1, “Inhibition of DNA methyltransferase” (priority 1994, published 2002).

Legend:
Y1 cells [1] = experiment: Anchorage independent growth in soft agar; type: cell-based; details: 0-10 μM for 72 h, then soft agar without drug
Experimental: Yl cells were maintained as monolayers in F-10 medium which was supplemented with 7.25% heat inactivated horse serum and 2.5% heat inactivated fetal calf serum (Immunocorp, Montreal). All other media and reagents for cell culture were obtained from GIBCO-BRL. Yl cells (1×10^6) were plated on a 150 mm dish (Nunc) 15 hours before transfection. The pZαM expression vector encoding the 5′ of the murine DNA MeTase cDNA (10 ug) was cointroduced into Yl cells with 1 ug of pUCSVneo as a selectable marker by DNA mediated gene transfer using the calcium phosphate protocol (Ausubel et al., 1988, In Current Protocols in Molecular Biology. Wiley and Sons, New York). Selection was initiated 48 hours after transfection by adding 0.25 mg/ml G418 (GIBCO-BRL) to the medium. G418 resistant cells were cloned in selective medium. […] Growth was scored as colonies containing >10 cells, 21 days after plating.
To determine whether the expression of antisense to the DNA MeTase results in reversal of the tumorigenic potential the ability of the transfectants to grow in an anchorage independent fashion, which is considered an indicator of tumorigenicity, was also determined. […] Growth on soft agar was quantified by visual examination and presented graphically in FIG. 4C. […]

Y1 cells [2] = experiment: Viability by trypan blue staining under serum deprivation; type: cell-based; details: 0-10 μM for 72 h, then 1% horse serum five days without drug
Excerpt: Factors present in the serum are essential for the survival of many nontumorigenic cells. […] For example, the oncogene bc1-2 is not a stimulator of cell proliferation but rather causes inhibition of apoptosis. […] It was reasoned that as factors in the serum are known to act as survival factors for cells, an apoptotic program could be activated only when these factors are remove. To test whether pZαM transfectants undergo programmed cell death under serum deprived condition, the effects of serum starvation on these transfectants was studied. pZαM transfectants and control Yl pZEM transfectants (3×10^5 per well) were plated in low serum medium (1% horse serum) in six well plates, harvested every 24 hours and tested for viability by trypan blue staining (FIG. 7B).
1×10^5 Y1 cells were plated in growth medium. Twenty-four hours after plating, the medium was replaced with fresh medium containing various concentrations (0-10 μM) of 5 azaCdR (Sigma). The medium was removed and replaced with fresh medium containing 5 azaCdR every 12 h for a period of 72 h. Following 5 azaCdR treatment the cells were plated onto a six well dish in growth medium (100, 300, 500 cells per well) for cologinecity determinations, in soft agar for determining anchorage independent growth (3×10^3 cells per well) and in low serum (1% horse serum) for five days to determine viability under serum deprived conditions. […]

DNA MeTase = target: T1, DNA MeTase (Mus musculus, UniProt P13864); experiment: Nearest neighbour analysis of methylated cytosines in CpG of total genomic DNA; type: cell-based, murine; details: Y1 cells, 0-10 μM for 72 h
T1 construct: endogenous in cells; host or cells: Y1 cells (parental, pZEM control transfectants and pZαM antisense transfectants)
T1 sequence (P13864 whole entry): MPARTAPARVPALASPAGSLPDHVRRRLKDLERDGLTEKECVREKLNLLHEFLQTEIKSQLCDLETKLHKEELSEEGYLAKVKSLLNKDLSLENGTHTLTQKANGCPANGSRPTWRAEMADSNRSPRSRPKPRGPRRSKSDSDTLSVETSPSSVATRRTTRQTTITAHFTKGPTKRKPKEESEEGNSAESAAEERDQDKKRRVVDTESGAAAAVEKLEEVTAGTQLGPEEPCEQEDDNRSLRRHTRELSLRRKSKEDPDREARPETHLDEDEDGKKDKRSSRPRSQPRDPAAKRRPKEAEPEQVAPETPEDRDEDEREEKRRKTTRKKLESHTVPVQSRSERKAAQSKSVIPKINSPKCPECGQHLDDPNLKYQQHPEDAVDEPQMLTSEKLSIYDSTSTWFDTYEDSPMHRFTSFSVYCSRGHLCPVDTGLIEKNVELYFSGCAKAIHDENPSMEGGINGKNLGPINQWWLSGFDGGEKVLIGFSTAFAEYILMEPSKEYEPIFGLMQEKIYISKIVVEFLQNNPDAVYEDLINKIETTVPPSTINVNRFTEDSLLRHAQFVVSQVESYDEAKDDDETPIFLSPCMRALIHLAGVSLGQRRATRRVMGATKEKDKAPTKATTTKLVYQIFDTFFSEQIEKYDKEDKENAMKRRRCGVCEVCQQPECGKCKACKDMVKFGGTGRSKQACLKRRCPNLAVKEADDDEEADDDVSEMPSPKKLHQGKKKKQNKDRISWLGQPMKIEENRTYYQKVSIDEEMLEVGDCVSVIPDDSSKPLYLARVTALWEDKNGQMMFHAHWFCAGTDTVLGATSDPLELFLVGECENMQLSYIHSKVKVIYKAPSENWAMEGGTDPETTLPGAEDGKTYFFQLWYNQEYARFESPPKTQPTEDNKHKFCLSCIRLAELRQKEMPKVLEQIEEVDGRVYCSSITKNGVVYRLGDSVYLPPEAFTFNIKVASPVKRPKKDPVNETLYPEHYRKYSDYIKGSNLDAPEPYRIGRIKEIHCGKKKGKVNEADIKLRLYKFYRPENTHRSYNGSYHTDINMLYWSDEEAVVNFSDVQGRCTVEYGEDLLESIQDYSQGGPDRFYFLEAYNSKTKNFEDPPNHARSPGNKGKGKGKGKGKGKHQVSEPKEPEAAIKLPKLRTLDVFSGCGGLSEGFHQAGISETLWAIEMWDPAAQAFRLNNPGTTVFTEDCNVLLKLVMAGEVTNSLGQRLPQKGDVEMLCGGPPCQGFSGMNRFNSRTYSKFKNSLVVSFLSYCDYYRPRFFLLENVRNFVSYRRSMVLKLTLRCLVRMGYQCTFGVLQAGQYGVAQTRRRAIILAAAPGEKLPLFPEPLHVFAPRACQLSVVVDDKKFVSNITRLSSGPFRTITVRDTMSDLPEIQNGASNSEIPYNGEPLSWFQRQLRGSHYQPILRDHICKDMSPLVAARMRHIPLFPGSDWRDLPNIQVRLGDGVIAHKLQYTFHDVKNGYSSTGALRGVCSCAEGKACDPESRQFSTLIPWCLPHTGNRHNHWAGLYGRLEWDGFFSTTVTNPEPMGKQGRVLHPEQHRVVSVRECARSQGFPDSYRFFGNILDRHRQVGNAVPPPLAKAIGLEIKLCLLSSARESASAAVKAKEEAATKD
Experimental: To determine whether expression of antisense RNA to the DNA MeTase gene leads to a general reduction in the level of methylation of the genome, we resorted to “nearest neighbour” analysis using [α-32P]-dGTP as previously was performed. This assay enables the determination of the percentage of methylated cytosines residing in the dinucleotide sequence CpG (Razin et al., 1985, IN Biochemistry and Biology of DNA methylation, p. 239, Razin et al., (Ed), Allan R. Liss, Inc. N.Y.). […] Equal amounts of radioactivity were loaded on TLC phosphocellulose plates (Merck) and the 3′ mononucleotides were separated by chromatography in one dimension (iso-butyric acid: H2O:NH4OH in the ratio 66:33:1). The chromatograms were exposed to XAR™ film (Eastman-Kodak) and the spots corresponding to cytosine and 5-methylcytosine were scraped and counted in a β-scintillation counter.
Transfectants and control DNAs were nicked with DNAaseI, nick translated with a single nucleotide [α-32P]-dGTP using DNA polymerase I and the labelled DNA was digested to 3′ mononucleotide phosphates with micrococal nuclease which cleaves DNA 3′ to the introduced α-32p. The [α-32P] labelled 5′ neighbours of dGMP were separated by chromatography on a TLC plate, the resulting spots for dCMP and dC^metMp were scraped and counted by liquid scintillation. […]

What does the source list for `Nc1ncn([C@H]2C[C@H](O)[C@@H](CO)O2)c(=O)n1` [5 azaCdR]?
growth on soft agar (Y1 cells [1]): drastically inhibit the growth of Y1 cells on soft agar; viability of serum-starved cells (Y1 cells [2]): decrease the viability of serum-starved cells; level of non-methylated cytosine in CpG (DNA MeTase): increase the level of non-methylated cytosine
